Measurements as given in patent US20240360151A1 (SANOFI, priority 2023, published 2024).

How the values were obtained:
[1] = tested on: NF-kB pathway (TNF-α secretion by THP-1 cells); assay: TNF-α secretion assay in LPS-stimulated THP-1 cells, Lumit immunoassay; format: cell-based, human; conditions: Homo sapiens, THP-1, 3 h, monocytic THP-1 cells, LPS 10 ng/mL, relative IC50, 10 concentrations, geometric mean
How it was run: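 THP-1 monocytes in RPMI with 5% FBS were treated with compound, then stimulated with 10 ng/mL LPS for 3 h. Secreted TNF-α was measured in-plate by Lumit immunoassay. Relative IC50 came from 10-concentration curves fitted with a 4-parameter logistic model, reported as geometric mean.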

[2] = biological target: T1, NLRP3 inflammasome (Homo sapiens, UniProt Q96P20); assay: IL-1β secretion assay (NLRP3 IC50) in LPS-primed, nigericin-activated THP-1 cells, HTRF; format: cell-based; conditions: monocytic THP-1 cells; LPS 10 ng/mL 3 h priming, then compound + nigericin 10 μM 2 h; relative IC50, 10 concentrations, geometric mean
T1 construct: endogenous in cells; host or cells: THP-1 monocytic cells
How it was run: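 THP-1 cells primed with LPS 10 ng/mL for 3 h at 37° C., then compound (10-point 1:3 dilution, 0.1% DMSO) added with 10 μM nigericin for 2 h. Supernatant IL-1β measured by HTRF; relative IC50 from a 4-parameter logistic fit, reported as geometric mean.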

T1 sequence (Q96P20 whole entry): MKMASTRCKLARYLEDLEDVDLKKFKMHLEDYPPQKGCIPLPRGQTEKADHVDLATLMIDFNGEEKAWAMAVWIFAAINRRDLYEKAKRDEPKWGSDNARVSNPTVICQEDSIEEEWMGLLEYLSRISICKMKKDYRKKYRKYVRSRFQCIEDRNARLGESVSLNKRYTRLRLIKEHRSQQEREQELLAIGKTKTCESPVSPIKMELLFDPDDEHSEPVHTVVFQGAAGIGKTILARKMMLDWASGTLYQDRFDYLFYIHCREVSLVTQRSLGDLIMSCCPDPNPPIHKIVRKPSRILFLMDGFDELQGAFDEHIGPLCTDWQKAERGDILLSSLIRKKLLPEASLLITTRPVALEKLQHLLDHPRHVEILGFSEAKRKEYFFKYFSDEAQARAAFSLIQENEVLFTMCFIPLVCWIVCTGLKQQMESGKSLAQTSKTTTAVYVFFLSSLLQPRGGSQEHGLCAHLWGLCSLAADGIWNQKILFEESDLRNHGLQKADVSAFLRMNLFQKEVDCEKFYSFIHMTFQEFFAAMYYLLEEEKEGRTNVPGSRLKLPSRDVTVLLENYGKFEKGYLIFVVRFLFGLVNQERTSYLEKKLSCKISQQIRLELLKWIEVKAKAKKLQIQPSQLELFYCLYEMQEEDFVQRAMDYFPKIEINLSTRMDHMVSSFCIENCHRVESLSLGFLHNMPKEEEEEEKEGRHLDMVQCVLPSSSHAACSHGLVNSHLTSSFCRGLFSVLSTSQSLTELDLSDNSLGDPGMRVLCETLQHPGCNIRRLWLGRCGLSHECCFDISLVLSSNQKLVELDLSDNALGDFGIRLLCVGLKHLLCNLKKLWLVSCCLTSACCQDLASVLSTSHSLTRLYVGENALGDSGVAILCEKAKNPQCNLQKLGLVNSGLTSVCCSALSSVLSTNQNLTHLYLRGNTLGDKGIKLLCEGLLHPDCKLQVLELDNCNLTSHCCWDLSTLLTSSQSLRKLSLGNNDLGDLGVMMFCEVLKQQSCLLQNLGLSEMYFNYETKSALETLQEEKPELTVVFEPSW

Compound	IC50 [1] [nM]	IC50 [2] [nM]
CCc1cccc(O)c1-c1ccc(N2CC[C@H]3CCN(C)C[C@H]32)nn1 (single isomer, unassigned) [Example 423]	> 10000	0.48
CN1CC[C@H]2CCN(c3ccc(-c4c(O)cccc4C(F)(F)F)nn3)[C@H]2C1 (single isomer, unassigned) [Example 427]	> 10000	2
CCN1CC[C@H]2CCN(c3ccc(-c4c(C)cc(C(F)(F)F)cc4O)nn3)[C@H]2C1 (single isomer, unassigned) [Example 429]	> 10000	< 0.36
Cc1cc(C)c(-c2ccc(N3CCC[C@]4(C3)C[C@H](O)C4)nn2)c(O)c1 (single isomer, unassigned; isomer 1) [Example 175, 6-[6-(2-hydroxy-4,6-dimethyl-phenyl)pyridazin-3-yl]-6-azaspiro[3.5]nonan-2-ol Isomer 1]	> 10000	522
Cc1cc(C)c(-c2ccc(N3CCC[C@]4(C3)C[C@@H](O)C4)nn2)c(O)c1 (single isomer, unassigned; isomer 2) [Example 176, 6-[6-(2-hydroxy-4,6-dimethyl-phenyl)pyridazin-3-yl]-6-azaspiro[3.5]nonan-2-ol Isomer 2]	> 10000	250
Cc1cc(C)c(-c2ccc(N3C[C@@H]4COC[C@H]4C3)nn2)c(O)c1 (stereo in doubt) [Example 207, 2-[6-[(3aR,6aR)-1,3,3a,4,6,6a-hexahydrofuro[3,4-c]pyrrol-5-yl]pyridazin-3-yl]-3,5-dimethyl-phenol]	3010	174
CC(=O)N1CC[C@@H]2OCCN(c3ccc(-c4c(C)cc(C(F)(F)F)cc4O)nn3)[C@@H]2C1 (stereo in doubt) [Example 398, 1-[(4aR,8aS)-4-[6-[2-hydroxy-6-methyl-4-(trifluoromethyl)phenyl]pyridazin-3-yl]-3,4a,5,7,8,8a-hexahydro-2H-pyrido[4,3-b][1,4]oxazin-6-yl]ethanone]	> 10000	17
CCN1CC[C@H]2CCN(c3ccc(-c4c(C)cc(C(F)(F)F)cc4O)nn3)[C@H]2C1 (stereo in doubt) [Example 406, 2-[6-[(3aS,7aR)-6-ethyl-3,3a,4,5,7,7a-hexahydro-2H-pyrrolo[2,3-c]pyridin-1-yl]pyridazin-3-yl]-3-methyl-5-(trifluoromethyl)phenol]	> 10000	78
Cc1cc(C)c(-c2ccc(N3CCC(O)CC3)nn2)c(O)c1 [Example 1, 1-[6-(2-hydroxy-4,6-dimethyl-phenyl)pyridazin-3-yl]piperidin-4-ol]	> 10000	407
Cc1cc(C)c(-c2ccc(N3CCOC[C@H]3CO)nn2)c(O)c1 [Example 5, 2-[6-[(3R)-3-(hydroxymethyl)morpholin-4-yl]pyridazin-3-yl]-3,5-dimethyl-phenol]	> 10000	290
Cc1cc(C)c(-c2ccc(N3CCOC[C@@H]3CO)nn2)c(O)c1 [Example 6, 2-[6-[(3S)-3-(hydroxymethyl)morpholin-4-yl]pyridazin-3-yl]-3,5-dimethyl-phenol]	> 10000	235
Cc1cc(C)c(-c2ccc(N3CCO[C@H](CO)C3)nn2)c(O)c1 [Example 8, 2-[6-[(2S)-2-(hydroxymethyl)morpholin-4-yl]pyridazin-3-yl]-3,5-dimethyl-phenol]	> 10000	20
Cc1cc(C)c(-c2ccc(N3CCO[C@@H](CO)C3)nn2)c(O)c1 [Example 9, 2-[6-[(2R)-2-(hydroxymethyl)morpholin-4-yl]pyridazin-3-yl]-3,5-dimethyl-phenol]	> 10000	113
COC[C@H]1CCCN1c1ccc(-c2c(C)cc(C(F)(F)F)cc2O)nn1 [Example 14, 2-[6-[(2R)-2-(methoxymethyl)pyrrolidin-1-yl]pyridazin-3-yl]-3-methyl-5-(trifluoromethyl)phenol]	> 10000	605
COC[C@@H]1CCCN1c1ccc(-c2c(C)cc(C(F)(F)F)cc2O)nn1 [Example 15, 2-[6-[(2S)-2-(methoxymethyl)pyrrolidin-1-yl]pyridazin-3-yl]-3-methyl-5-(trifluoromethyl)phenol]	> 10000	406
Cc1cc(C(F)(F)F)cc(O)c1-c1ccc(N2CCO[C@H](CO)C2)nn1 [Example 16, 2-[6-[(2S)-2-(hydroxymethyl)morpholin-4-yl]pyridazin-3-yl]-3-methyl-5-(trifluoromethyl)phenol]	> 10000	25
NC1(C2CCCN(c3ccc(-c4c(O)cc(Cl)cc4Cl)nn3)C2)CC1 (stereo not shown) [Example 17, 2-[6-[3-(1-aminocyclopropyl)-1-piperidyl]pyridazin-3-yl]-3,5-dichloro-phenol]	> 10000	473
NC[C@@H]1CCCN(c2ccc(-c3c(O)cc(Cl)cc3Cl)nn2)C1 [Example 18, 2-[6-[(3S)-3-(aminomethyl)-1-piperidyl]pyridazin-3-yl]-3,5-dichloro-phenol]	> 10000	173

Compound	IC50 [1] [nM]	IC50 [2] [nM]
Cc1cc(C(F)(F)F)cc(O)c1-c1ccc(N2CC[C@H](CO)C2)nn1 [Example 20, 2-[6-[(3S)-3-(hydroxymethyl)pyrrolidin-1-yl]pyridazin-3-yl]-3-methyl-5-(trifluoromethyl)phenol]	> 10000	44
OC[C@@H]1CN(c2ccc(-c3c(O)cc(Cl)cc3Cl)nn2)CCO1 [Example 21, 3,5-dichloro-2-[6-[(2S)-2-(hydroxymethyl)morpholin-4-yl]pyridazin-3-yl]phenol]	> 10000	20
NC[C@H]1CCCN(c2ccc(-c3c(O)cc(Cl)cc3Cl)nn2)C1 [Example 22, 2-[6-[(3R)-3-(aminomethyl)-1-piperidyl]pyridazin-3-yl]-3,5-dichloro-phenol]	> 10000	153
NC[C@@H]1CCN(c2ccc(-c3c(O)cc(Cl)cc3Cl)nn2)C1 [Example 23, 2-[6-[(3S)-3-(aminomethyl)pyrrolidin-1-yl]pyridazin-3-yl]-3,5-dichloro-phenol]	> 10000	192
NC[C@H]1CCN(c2ccc(-c3c(O)cc(Cl)cc3Cl)nn2)C1 [Example 25, 2-[6-[(3R)-3-(aminomethyl)pyrrolidin-1-yl]pyridazin-3-yl]-3,5-dichloro-phenol]	> 10000	109
Cc1cc(C(F)(F)F)cc(O)c1-c1ccc(N2CCOC(C(C)(C)O)C2)nn1 (stereo not shown) [Example 26, 2-[6-[2-(1-hydroxy-1-methyl-ethyl)morpholin-4-yl]pyridazin-3-yl]-3-methyl-5-(trifluoromethyl)phenol]	> 10000	352
Cc1cc(C(F)(F)F)cc(O)c1-c1ccc(N2CCC[C@H](CO)C2)nn1 [Example 28, 2-[6-[(3S)-3-(hydroxymethyl)-1-piperidyl]pyridazin-3-yl]-3-methyl-5-(trifluoromethyl)phenol]	> 10000	109
Cc1cc(C(F)(F)F)cc(O)c1-c1ccc(N2CCN(C)CC2)nn1 [Example 29, 3-methyl-2-[6-(4-methylpiperazin-1-yl)pyridazin-3-yl]-5-(trifluoromethyl)phenol]	> 10000	332
Cc1cc(C(F)(F)F)cc(O)c1-c1ccc(N2CC(CO)C2)nn1 [Example 30, 2-[6-[3-(hydroxymethyl)azetidin-1-yl]pyridazin-3-yl]-3-methyl-5-(trifluoromethyl)phenol]	> 10000	431
Cc1cc(C)c(-c2ccc(N3CCC[C@@H](N)C3)nn2)c(O)c1 [Example 31, 2-[6-[(3R)-3-amino-1-piperidyl]pyridazin-3-yl]-3,5-dimethyl-phenol; formic acid]	> 10000	520
COC[C@H]1CN(c2ccc(-c3c(O)cc(Cl)cc3Cl)nn2)CCO1 [Example 33, 3,5-dichloro-2-[6-[(2R)-2-(methoxymethyl)morpholin-4-yl]pyridazin-3-yl]phenol]	> 10000	239
OC[C@H]1CCCN(c2ccc(-c3c(O)cc(Cl)cc3Cl)nn2)C1 [Example 34, 3,5-dichloro-2-[6-[(3S)-3-(hydroxymethyl)-1-piperidyl]pyridazin-3-yl]phenol]	> 10000	95
COC[C@@H]1CN(c2ccc(-c3c(O)cc(Cl)cc3Cl)nn2)CCO1 [Example 35, 3,5-dichloro-2-[6-[(2S)-2-(methoxymethyl)morpholin-4-yl]pyridazin-3-yl]phenol]	> 10000	501
OC[C@@H]1CCCN(c2ccc(-c3c(O)cc(Cl)cc3Cl)nn2)C1 [Example 36, 3,5-dichloro-2-[6-[(3R)-3-(hydroxymethyl)-1-piperidyl]pyridazin-3-yl]phenol]	> 10000	96
Oc1cc(Cl)cc(Cl)c1-c1ccc(N2CCOCC2)nn1 [Example 38, 3,5-dichloro-2-(6-morpholinopyridazin-3-yl)phenol]	> 10000	90
CN(C)C[C@H]1CN(c2ccc(-c3c(O)cc(Cl)cc3Cl)nn2)CCO1 [Example 39, 3,5-dichloro-2-[6-[(2S)-2-[(dimethylamino)methyl]morpholin-4-yl]pyridazin-3-yl]phenol]	> 10000	238
CN(C)C[C@@H]1CCN(c2ccc(-c3c(O)cc(Cl)cc3Cl)nn2)C1 [Example 40, 3,5-dichloro-2-[6-[(3S)-3-[(dimethylamino)methyl]pyrrolidin-1-yl]pyridazin-3-yl]phenol]	> 10000	420
